In US20230020320A1, “Liquid Composition for Cleaning, Sanitizing and/or Disinfecting” (CORTICALIS AS, priority 2020, published 2023):
Entries after “also recorded” stand apart in the source; their conditions may differ. Where two headings read alike, the source gives them in different places.

Key:
[1] = system: non-spore forming bacteria; conditions: in less than 30 seconds, in the laboratory and on human skin; cited from earlier work
[2] = system: S. epidermidis; assay: Regrowth of luciferase-harbouring bacteria on sanitized titanium surfaces, fluorometer; type: cell-based; conditions: 5 minutes in sanitizing solution; for Time until regrowth of the biofilm after cleaning: then BHI medium at 37 centigrade, hourly reading
Protocol: Regrowth of S. epidermidis after sanitizing a contaminated titanium surface Regrowth of S. epidermidis bacteria harbouring the luciferase gene making them fluorescent, on sanitized titanium surfaces. Surfaces was first contaminated with bacteria and incubated in BHI broth until the surfaces were completely covered in biofilm. The titanium discs were then submerged in sanitizing solution and left on a slow shaker for 5 minutes. After sanitizing the discs were rinsed in a large volume of sterile water, then covered by BHI medium again and incubated at 37 centigrade. At hourly intervals the discs were placed in a fluorometer to measure regrowth of bacteria by amount of fluorescent as compared to an untreated calibrated control and a sterile disc.

[3] = cited from earlier work
[4] = system: S. epidermidis; assay: Staining of living and dead bacteria on decontaminated titanium surfaces, confocal microscope; type: cell-based; conditions: submerged in sanitizing solution 5 minutes on slow shaker
Protocol: Titanium surfaces contaminated with S. epidermidis bacteria and grown to biofilm in BHI broth was removed from growth medium and submerged in sanitizing solution for 5 minutes on a slow shaker. Discs were sanitized with A) saline (Negative control), B) Chlorhexidine 0.2% w/v, or C) H2O2 3% v/v+f-127 pluronic Acid 5% w/v. After cleaning the surfaces were stained with fluorescent dyes, green for living microbes and red for dead microbes. […] Surfaces were visualized in a confocal microscope after cleaning and staining (FIG. 4).

Compound	Non-spore forming bacteria killed [1] [%]	Time until regrowth of the biofilm after cleaning [2]	Effect on wound healing ([3]; 0.03% v/v solution, only if not applied repeatedly)	Effect on wound healing ([3]; 0.5% v/v solution)	Killing of microbes (green living / red dead staining) [4]	Removal of biofilm/contamination from titanium surface [4]	Biofilm remaining on the surface [2]	Killing of bacteria [2]
CC(C)O [Isopropyl alcohol]	≥ 99.99	–	–	–	–	–	–	–
OO [hydrogen peroxide, Hydrogen peroxide]	–	about 13 hours	may induce healing	impede healing	–	–	–	–
N=C(NCCCCCCNC(=N)NC(=N)Nc1ccc(Cl)cc1)NC(=N)Nc1ccc(Cl)cc1 [Chlorhexidine 0.2% w/v, Chlorhexidine]	–	no regrowth observed	–	–	killed all microbes; also recorded: killed all bacteria	left the dead cells to contaminate the surface; also recorded: left them to contaminate the surface	the dead biofilm stuck and remained on the surface	killed all bacteria
